{"source": "paper PMC12189931", "about": "“In Vitro Effects of Some Antibiotics on Purified β-Glucosidases from Rat Liver and Kidney Tissues” (Antibiotics, 2025)", "key": {"rat kidney BGL": {"target": "T1, rat kidney BGL (Rattus norvegicus, UniProt A0A0G2JVP8)", "T1 construct": "For this purpose, BGLs were purified from rat liver and kidney tissues; from tissue; host or cells: rat kidney", "T1 sequence (A0A0G2JVP8 1-469)": "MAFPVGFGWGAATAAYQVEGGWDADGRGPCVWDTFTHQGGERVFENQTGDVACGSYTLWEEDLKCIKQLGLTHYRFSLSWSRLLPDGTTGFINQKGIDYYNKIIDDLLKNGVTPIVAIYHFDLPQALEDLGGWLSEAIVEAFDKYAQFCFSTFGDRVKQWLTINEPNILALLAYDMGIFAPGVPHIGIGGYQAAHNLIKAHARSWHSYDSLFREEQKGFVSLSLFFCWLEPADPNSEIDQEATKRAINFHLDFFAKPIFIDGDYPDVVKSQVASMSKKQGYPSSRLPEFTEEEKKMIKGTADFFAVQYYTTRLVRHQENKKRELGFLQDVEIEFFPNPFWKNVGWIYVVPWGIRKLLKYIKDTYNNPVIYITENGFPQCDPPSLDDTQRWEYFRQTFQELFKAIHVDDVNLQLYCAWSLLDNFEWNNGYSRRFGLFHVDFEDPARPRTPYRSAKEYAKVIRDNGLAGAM", "assay": "In vitro inhibition of β-glucosidase purified from rat kidney (p-NPG substrate)", "format": "biochemical", "conditions": "for Ki / inhibition type / IC50: Kidney BGL; for Ki: Lineweaver–Burk plots; for inhibition type: Lineweaver–Burk, NI: No observed inhibition; for IC50: p-NPG 1.75 mM, GraphPad Prism; for effect on rat kidney BGL activity: tested concentration ranges 5–250 mM depending on antibiotic", "method": "(§1) Rat liver and kidney BGL activities were determined spectrophotometrically using a ThermoFisher Scientific Multiskan™ FC microplate (Thermo Fisher Scientific, Waltham, MA, USA). p-NPG dissolved in 50 mM of pH 5.5 Na–Ac buffer was used as the substrate. In this method, enzyme activity was determined by photometrically measuring the determination of p-nitrophenol (p-NP) released in the presence of BGLs spectrophotometrically at 405 nm. Calculations were made with the standard curve of p-NP (Cat. No. 241326, Sigma) prepared at 405 nm. One enzyme unit (EU) was defined as the amount of μmol p-nitrophenol released per minute in the reaction medium under the specified experimental conditions.\n(§2) The half-maximal inhibitory concentration (IC50) of antibiotics was determined using a constant concentration of p-NPG of 1.75 mM. At least ten different concentration ranges of each antibiotic were tested to evaluate the in vitro effects of ampicillin (5–250 mM), amoxicillin–clavulanate (5–70 mM), cefuroxime (5–150 mM), cefazolin sodium (10–165 mM), ceftriaxone (10–160 mM), and gentamicin (5–50 mM). Enzyme activity was measured in the presence of different antibiotic concentrations, and BGL activity in the medium without antibiotics, which was accepted as the control group, was determined as 100% reference value. Enzyme activity results were expressed as % activity and the inhibitory concentration (IC50) that reduced enzyme activity by 50% was calculated using GraphPad Prism software. All experiments were performed in three replicates for each antibiotic concentration.\n(§3) Lineweaver–Burk double-reciprocal plots were used to determine the inhibitory effect of antibiotics and the inhibition mechanisms. The curve obtained when there was no inhibitor in the reaction medium was accepted as the control (I0); the intersection points of the control curve with the lines drawn in the presence of the inhibitor at two different concentrations were analyzed. In line with these intersection points, the relevant inhibition types were determined, and the inhibitory constants (Ki) of the inhibitors were calculated."}, "rat liver BGL": {"target": "T2, rat liver BGL (Rattus norvegicus, UniProt A0A0G2JVP8)", "T2 construct": "For this purpose, BGLs were purified from rat liver and kidney tissues; from tissue; host or cells: rat liver", "T2 sequence (A0A0G2JVP8 1-469)": "T1 sequence (A0A0G2JVP8 1-469)", "assay": "In vitro inhibition of β-glucosidase purified from rat liver (p-NPG substrate)", "format": "biochemical", "conditions": "for effect on rat liver BGL activity: tested concentration ranges 5–250 mM depending on antibiotic", "method": "as §1, §2, §3"}, "[1]": {"tested_on": "glucose-6-phosphate dehydrogenase (G6PD) purified from human erythrocytes", "parameters": "method as in PMID 10712835", "conditions": "cited from earlier work; for IC50: G6PD purified from human erythrocytes"}, "[2]": {"tested_on": "glutathione reductase (GR) purified from mouse liver", "parameters": "method as in PMID 32196862", "conditions": "cited from earlier work"}, "[3]": {"tested_on": "glutathione reductase (GR) purified from mouse kidney tissue", "parameters": "method as in PMID 32196862", "conditions": "cited from earlier work"}, "[4]": {"tested_on": "glucose-6-phosphate dehydrogenase (G6PD) purified from rat lung tissue", "parameters": "method as in PMID 26758606", "conditions": "cited from earlier work"}, "[5]": {"tested_on": "6-phosphogluconate dehydrogenase (6PGD) purified from rat lung tissue", "parameters": "method as in PMID 26758606", "conditions": "cited from earlier work"}, "[6]": {"tested_on": "glutathione reductase (GR) purified from rat lung tissue", "parameters": "method as in PMID 26758606", "conditions": "cited from earlier work"}, "[7]": {"tested_on": "glutathione reductase (GR) purified from human erythrocytes", "parameters": "method as in PMID 15895687", "conditions": "cited from earlier work"}, "[8]": {"tested_on": "G6PD purified from sheep erythrocytes", "parameters": "method as in PMID 12530481", "conditions": "cited from earlier work"}}, "note": "Several values for one entry are separate records, joined by “and”; a condition that tells them apart may be missing. Equal values may be shown once. Entries after “also recorded” stand apart in the source; their conditions may differ.", "data": [{"molecule": "CC1(C)S[C@@H]2[C@H](NC(=O)[C@H](N)c3ccccc3)C(=O)N2[C@H]1C(=O)O", "note": "[Ampicillin]", "values": [{"measurement": "Ki", "setting": "rat kidney BGL", "result": "28.4 ± 6.35", "unit": "mM"}, {"measurement": "inhibition type", "setting": "rat kidney BGL", "result": "noncompetitively; also recorded: Noncompetitive"}, {"measurement": "IC50", "setting": "rat kidney BGL", "result": "25 mM and 25.3 mM"}, {"measurement": "loss in liver BGL activity", "setting": "rat liver BGL; 40 mM ampicillin in the medium", "result": 10, "unit": "%"}, {"measurement": "Ki", "setting": "rat liver BGL; Liver BGL, Lineweaver–Burk plots", "result": "14.3 ± 3.35", "unit": "mM"}, {"measurement": "inhibition type", "setting": "rat liver BGL; Liver BGL, Lineweaver–Burk, NI: No observed inhibition", "result": "competitively; also recorded: Competitive"}, {"measurement": "IC50", "setting": "rat liver BGL; Liver BGL, p-NPG 1.75 mM, GraphPad Prism", "result": "70 mM and 69.6 mM"}]}, {"molecule": "Cc1nnc(SCC2=C(C(=O)O)N3C(=O)[C@@H](NC(=O)Cn4cnnn4)[C@H]3SC2)s1", "note": "[Cefazolin sodium]", "values": [{"measurement": "inhibition type", "setting": "[1]; human erythrocyte G6PD", "result": "noncompetitive"}, {"measurement": "inhibition / inhibition type", "setting": "[2]", "result": "did not inhibit"}, {"measurement": "inhibition / inhibition type", "setting": "[3]", "result": "did not inhibit"}, {"measurement": "inhibition type", "setting": "rat kidney BGL", "result": "Noncompetitive"}, {"measurement": "inhibition type", "setting": "rat kidney BGL; listed as cefazolin sodium", "result": "noncompetitively"}, {"measurement": "IC50", "setting": "rat kidney BGL", "result": 98.8, "unit": "mM"}, {"measurement": "effect on rat liver BGL activity", "setting": "rat liver BGL", "result": "did not show a significant inhibitory effect"}]}, {"molecule": "CO/N=C(\\C(=O)N[C@@H]1C(=O)N2C(C(=O)O)=C(CSc3nc(=O)c(=O)[nH]n3C)CS[C@H]12)c1csc(N)n1", "note": "[Ceftriaxone]", "values": [{"measurement": "effect on rat kidney BGL activity", "setting": "rat kidney BGL", "result": "did not reduce kidney BGL activity; also recorded: did not significantly inhibit; also recorded: did not exhibit inhibitory effects"}, {"measurement": "effect on rat liver BGL activity", "setting": "rat liver BGL", "result": "did not show a significant inhibitory effect"}]}, {"molecule": "CO/N=C(\\C(=O)N[C@@H]1C(=O)N2C(C(=O)O)=C(COC(N)=O)CS[C@H]12)c1ccco1", "note": "[Cefuroxime]", "values": [{"measurement": "inhibition type", "setting": "[4]", "result": "noncompetitively"}, {"measurement": "Ki", "setting": "rat kidney BGL", "result": "18.7 ± 12.7", "unit": "mM"}, {"measurement": "inhibition type", "setting": "rat kidney BGL", "result": "Uncompetitive"}, {"measurement": "IC50", "setting": "rat kidney BGL", "result": 76.9, "unit": "mM"}, {"measurement": "inhibition type", "setting": "[5]", "result": "noncompetitively"}, {"measurement": "effect on rat liver BGL activity", "setting": "rat liver BGL", "result": "did not show a significant inhibitory effect"}, {"measurement": "inhibition type", "setting": "[6]", "result": "noncompetitively"}]}, {"molecule": "CNC(C)C1CCC(N)C(OC2C(N)CC(N)C(OC3OCC(C)(O)C(NC)C3O)C2O)O1", "note": "(centres unmarked) [Gentamicin]", "values": [{"measurement": "effect on enzyme activity", "setting": "[7]", "result": "increase the activity"}, {"measurement": "inhibition type", "setting": "[4]", "result": "competitively"}, {"measurement": "inhibition / inhibition type", "setting": "[2]", "result": "noncompetitive"}, {"measurement": "inhibition / inhibition type", "setting": "[3]", "result": "did not inhibit"}, {"measurement": "effect on rat kidney BGL activity", "setting": "rat kidney BGL", "result": "did not reduce kidney BGL activity"}, {"measurement": "effect on rat kidney BGL activity", "setting": "rat kidney BGL; listed as gentamicin", "result": "did not significantly inhibit; also recorded: did not exhibit inhibitory effects; also recorded: no effect on enzyme activity"}, {"measurement": "inhibition type", "setting": "[5]", "result": "competitively"}, {"measurement": "effect on rat liver BGL activity", "setting": "rat liver BGL; listed as gentamicin", "result": "did not show a significant inhibitory effect; also recorded: increased enzyme activity; also recorded: no inhibitory effect"}, {"measurement": "inhibition type", "setting": "[6]", "result": "competitively"}]}, {"molecule": "CC1(C)S[C@@H]2[C@H](NC(=O)[C@H](N)c3ccc(O)cc3)C(=O)N2[C@H]1C(=O)O", "note": "[amoxicillin]", "values": [{"measurement": "inhibition / inhibition type", "setting": "[2]", "result": "competitive"}, {"measurement": "IC50", "setting": "[3]", "result": 86, "unit": "mM"}, {"measurement": "inhibition / inhibition type", "setting": "[3]", "result": "noncompetitive"}]}, {"molecule": "CO/N=C(\\C(=O)N[C@@H]1C(=O)N2C(C(=O)O)=C(COC(N)=O)CS[C@H]12)c1ccco1", "note": "[sodium cefuroxime]", "values": [{"measurement": "IC50", "setting": "[1]", "result": 6.7, "unit": "mM"}]}, {"molecule": "gentamicin sulfate", "values": [{"measurement": "IC50", "setting": "[1]", "result": 12, "unit": "mM"}, {"measurement": "inhibition type", "setting": "[8]", "result": "noncompetitively"}]}]}
